Test results from patent US4933347A, “Diamidines and bis(imidazolines) for the treatment of and prophylaxis against pneumocystis carinii pneumonia” (University of North Carolina at Chapel Hill, priority 1988, dated 1990).

How the values were obtained:
[1] = Toxicity of amidines in rats (standard laboratory procedure); assay type: in vivo
Protocol: Compounds having the structure represented by Formula I were synthesized in accordance with the appropriate procedures discussed previously. The reaction schemes shown in Charts I-III specifically identify the methodology used to synthesize the compounds of the respective examples. The compounds which were synthesized are shown in Table IA and the elemental analysis and melting points of the compounds are shown in Table IB. Most of the compounds were tested for toxicity in rats using standard laboratory procedure and the results of that toxicity testing are shown in Table XII. The compounds of Examples 31, 32, and 34 were not synthesized but may be synthesized in the general manner discussed previously.

[2] = tested on: Pneumocystis carinii; assay: Treatment of Pneumocystis carinii pneumonia in Sprague-Dawley rats (extent of disease by histologic score); assay type: in vivo, male Sprague-Dawley rats; details: for Extent of Disease by Histologic Score: number of animals with score 0.5 / Extent of Disease by Histologic Score: number of animals with score 1 / Extent of Disease by Histologic Score: number of animals with score 2 / Extent of Disease by Histologic Score: number of animals with score 3 / Extent of Disease by Histologic Score: number of animals with score 4: 14 days; for Extent of Disease by Histologic Score: number of animals with score 0.5 / Extent of disease by histologic score (combined): number of animals in scoring group 0.5: 0.5 = <10 cysts found per 2 sections; for Extent of Disease by Histologic Score: number of animals with score 1 / Extent of disease by histologic score (combined): number of animals in scoring group 1: 1 = scattered cysts, <5% of lung involved; for Extent of Disease by Histologic Score: number of animals with score 2 / Extent of disease by histologic score (combined): number of animals in scoring group 2: 2 = scattered cysts; for Extent of Disease by Histologic Score: number of animals with score 2: 5-10% lung involved or small foci of infection; for Extent of Disease by Histologic Score: number of animals with score 3 / Extent of disease by histologic score (combined): number of animals in scoring group 3: 3 = scattered cysts; for Extent of Disease by Histologic Score: number of animals with score 3: 10-50% of lung involved with some intense areas of infection; for Extent of Disease by Histologic Score: number of animals with score 4: 4 = >50% of lung involved with many intense areas of focal infection; for Extent of disease by histologic score (combined): number of animals in scoring group 0.5 / Extent of disease by histologic score (combined): number of animals in scoring group 1 / Extent of disease by histologic score (combined): number of animals in scoring group 2 / Extent of disease by histologic score (combined): number of animals in scoring group 3 / Extent of disease by histologic score (combined): number of animals in scoring group 4: Table XII composite; for Extent of disease by histologic score (combined): number of animals in scoring group 2: 5-10% of lung involved; for Extent of disease by histologic score (combined): number of animals in scoring group 3: 10-50% of lung involved; for Extent of disease by histologic score (combined): number of animals in scoring group 4: 4 = >50% of lung involved
[3] = dose as in value, else not given in Table XIII (10 mg/kg test dose)

Row | Compound | Toxicity of amidines: Effect [1, 3] | Extent of Disease by Histologic Score: number of animals with score 0.5 ([2]; 5 mg/kg i.v. daily) | Extent of Disease by Histologic Score: number of animals with score 1 ([2]; 5 mg/kg i.v. daily) | Extent of Disease by Histologic Score: number of animals with score 2 ([2]; 5 mg/kg i.v. daily) | Extent of Disease by Histologic Score: number of animals with score 3 ([2]; 5 mg/kg i.v. daily) | Extent of Disease by Histologic Score: number of animals with score 4 ([2]; 5 mg/kg i.v. daily) | Extent of disease by histologic score (combined): number of animals in scoring group 0.5 ([2]; tested at 5 mg/kg) | Extent of disease by histologic score (combined): number of animals in scoring group 1 ([2]; tested at 5 mg/kg) | Extent of disease by histologic score (combined): number of animals in scoring group 2 ([2]; tested at 5 mg/kg) | Toxicity of amidines: Effect ([1]; rat, in vivo, 2.5 mg/kg) | Extent of Disease by Histologic Score: number of animals with score 0.5 ([2]; 2.5 mg/kg i.v. daily) | Extent of Disease by Histologic Score: number of animals with score 1 ([2]; 2.5 mg/kg i.v. daily) | Extent of Disease by Histologic Score: number of animals with score 2 ([2]; 2.5 mg/kg i.v. daily) | Extent of Disease by Histologic Score: number of animals with score 3 ([2]; 2.5 mg/kg i.v. daily) | Extent of Disease by Histologic Score: number of animals with score 4 ([2]; 2.5 mg/kg i.v. daily) | Extent of disease by histologic score (combined): number of animals in scoring group 0.5 ([2]; tested at 2.5 mg/kg) | Extent of disease by histologic score (combined): number of animals in scoring group 1 ([2]; tested at 2.5 mg/kg) | Extent of disease by histologic score (combined): number of animals in scoring group 2 ([2]; tested at 2.5 mg/kg) | Extent of disease by histologic score (combined): number of animals in scoring group 3 ([2]; tested at 2.5 mg/kg) | Extent of disease by histologic score (combined): number of animals in scoring group 4 ([2]; tested at 2.5 mg/kg) | also measured
1 | N=C(N)c1ccc(NCCCCCNc2ccc(C(=N)N)cc2)cc1 [Example 17] |  |  |  |  |  |  |  |  |  |  |  |  |  |  |  |  |  |  |  |  | Deaths by day 13 ([1]; rat, in vivo): 2 deaths; Extent of Disease by Histologic Score: number of animals with score 0.5 ([2]; 10 mg/kg i.v. daily): 1 animals; Extent of Disease by Histologic Score: number of animals with score 1 ([2]; 10 mg/kg i.v. daily): 2 animals; Extent of Disease by Histologic Score: number of animals with score 2 ([2]; 10 mg/kg i.v. daily): 3 animals; Extent of Disease by Histologic Score: number of animals with score 3 ([2]; 10 mg/kg i.v. daily): 1 animals; Extent of Disease by Histologic Score: number of animals with score 4 ([2]; 10 mg/kg i.v. daily): 0 animals; Efficacy in treating PCP compared with pentamidine ([2]; 10 mg/kg unless otherwise noted): better than or equal to pentamidine; Extent of disease by histologic score (combined): number of animals in scoring group 0.5 ([2]; 10 mg/kg): 1 animals; Extent of disease by histologic score (combined): number of animals in scoring group 1 ([2]; 10 mg/kg): 2 animals; Extent of disease by histologic score (combined): number of animals in scoring group 2 ([2]; 10 mg/kg): 3 animals; Extent of disease by histologic score (combined): number of animals in scoring group 3 ([2]; 10 mg/kg): 1 animals; Extent of disease by histologic score (combined): number of animals in scoring group 4 ([2]; 10 mg/kg): 0 animals; Efficacy in treating PCP compared with related compounds of the series ([2]; effect of chain length or substituent): least effective
2 | N=C(N)c1ccc(NCCCCCNc2ccc(C(=N)N)cc2[N+](=O)[O-])c([N+](=O)[O-])c1 [Example 18] | Acute toxicity - death at 10 mg/kg | 1 animals | 3 animals | 0 animals | 2 animals | 1 animals | 1 animals | 3 animals | 0 animals |  |  |  |  |  |  |  |  |  |  |  | Extent of disease by histologic score (combined): number of animals in scoring group 3 ([2]; tested at 5 mg/kg): 2 animals; Extent of disease by histologic score (combined): number of animals in scoring group 4 ([2]; tested at 5 mg/kg): 1 animals; Efficacy in treating PCP compared with control ([2]; compound at 5 mg/kg): better than the control; Efficacy in treating PCP compared with pentamidine ([2]; compound at 5 mg/kg): less effective than pentamidine
3 | N=C(N)c1ccc(OCCCCCCOc2ccc(C(=N)N)cc2N)c(N)c1 [Example 22] | Acute toxicity - death at 10 mg/kg | 0 animals | 1 animals | 4 animals | 3 animals | 0 animals | 0 animals | 1 animals | 4 animals |  |  |  |  |  |  |  |  |  |  |  | Toxicity (words in running text) ([1]; rat, in vivo): toxic; Extent of disease by histologic score (combined): number of animals in scoring group 3 ([2]; tested at 5 mg/kg): 3 animals; Extent of disease by histologic score (combined): number of animals in scoring group 4 ([2]; tested at 5 mg/kg): 0 animals; Efficacy in treating PCP compared with pentamidine ([2]; compound at 5 mg/kg): significantly less effective than the other compounds or pentamidine
4 | N=C(N)c1ccc(OCCCCOc2ccc(C(=N)N)cc2Cl)c(Cl)c1 [Example 24] |  |  |  |  |  |  |  |  |  | None | 0 animals | 1 animals | 2 animals | 3 animals | 2 animals | 0 animals | 1 animals | 2 animals | 3 animals | 2 animals | 
5 | N=C(N)c1ccc(OCCCCCOc2ccc(C(=N)N)cc2Cl)c(Cl)c1 [Example 25] |  |  |  |  |  |  |  |  |  | None | 0 animals | 0 animals | 0 animals | 4 animals | 4 animals | 0 animals | 0 animals | 0 animals | 4 animals | 4 animals | 
6 | N=C(N)c1ccc(NCCCNc2ccc(C(=N)N)cc2[N+](=O)[O-])c([N+](=O)[O-])c1 [Example 35] |  | 0 animals | 0 animals | 0 animals | 2 animals | 6 animals | 0 animals | 0 animals | 0 animals |  |  |  |  |  |  |  |  |  |  |  | Toxicity of amidines: Effect ([1]; tested at 5 mg/kg): no toxicity; Extent of disease by histologic score (combined): number of animals in scoring group 3 ([2]; tested at 5 mg/kg): 2 animals; Extent of disease by histologic score (combined): number of animals in scoring group 4 ([2]; tested at 5 mg/kg): 6 animals
7 | N=C(N)c1ccc(OCCCCOc2ccc(C(=N)N)cc2[N+](=O)[O-])c([N+](=O)[O-])c1 [Example 38] | Acute toxicity at 10 mg/kg and 5 mg/kg |  |  |  |  |  |  |  |  |  | 0 animals | 0 animals | 3 animals | 1 animals | 4 animals | 0 animals | 0 animals | 3 animals | 1 animals | 4 animals | Toxicity of amidines: Effect ([1]; tested at 2.5 mg/kg): no toxicity
8 | CN1CCN=C1c1ccc(OCCCCOc2ccc(C3=NCCN3C)cc2)cc1 [Example 41] |  |  |  |  |  |  |  |  |  | no toxicity | 0 animals | 0 animals | 2 animals | 4 animals | 2 animals | 0 animals | 0 animals | 2 animals | 4 animals | 2 animals | 
9 | CN1CCN=C1c1ccc(OCCCCCOc2ccc(C3=NCCN3C)cc2)cc1 [Example 42] | Acute toxicity at 10 mg/kg and 5 mg/kg |  |  |  |  |  |  |  |  | no toxicity | 0 animals | 0 animals | 2 animals | 3 animals | 3 animals | 0 animals | 0 animals | 2 animals | 3 animals | 3 animals | 
